Laboratory results as given in US20230257396A1, “MACROCYCLES AND THEIR USE” (BLOSSOMHILL THERAPEUTICS, INC., priority 2020, published 2023).
Substitutions are numbered along the chain they refer to.

Assays:
Assay in all cases: KINOMEscan kinase binding assay (Eurofins/DiscoveRx), % Ctrl
Details in all cases: 1 μM
kinases [1] = test system: kinases
In short: (§1)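 Read-out is qPCR of kinase eluted from ligand-coated streptavidin beads after 1 h room-temperature competition with test compound. Values are % Ctrl at the tested concentration, lower meaning tighter binding.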

kinases [2] = target: T1, kinases (Homo sapiens, UniProt P16234)
T1 construct: purchased Eurofins/DiscoveRx; host or cells: E. coli BL21-derived host (T7 phage display) for most kinases; HEK-293 for the rest
T1 sequence (P16234 24-1089): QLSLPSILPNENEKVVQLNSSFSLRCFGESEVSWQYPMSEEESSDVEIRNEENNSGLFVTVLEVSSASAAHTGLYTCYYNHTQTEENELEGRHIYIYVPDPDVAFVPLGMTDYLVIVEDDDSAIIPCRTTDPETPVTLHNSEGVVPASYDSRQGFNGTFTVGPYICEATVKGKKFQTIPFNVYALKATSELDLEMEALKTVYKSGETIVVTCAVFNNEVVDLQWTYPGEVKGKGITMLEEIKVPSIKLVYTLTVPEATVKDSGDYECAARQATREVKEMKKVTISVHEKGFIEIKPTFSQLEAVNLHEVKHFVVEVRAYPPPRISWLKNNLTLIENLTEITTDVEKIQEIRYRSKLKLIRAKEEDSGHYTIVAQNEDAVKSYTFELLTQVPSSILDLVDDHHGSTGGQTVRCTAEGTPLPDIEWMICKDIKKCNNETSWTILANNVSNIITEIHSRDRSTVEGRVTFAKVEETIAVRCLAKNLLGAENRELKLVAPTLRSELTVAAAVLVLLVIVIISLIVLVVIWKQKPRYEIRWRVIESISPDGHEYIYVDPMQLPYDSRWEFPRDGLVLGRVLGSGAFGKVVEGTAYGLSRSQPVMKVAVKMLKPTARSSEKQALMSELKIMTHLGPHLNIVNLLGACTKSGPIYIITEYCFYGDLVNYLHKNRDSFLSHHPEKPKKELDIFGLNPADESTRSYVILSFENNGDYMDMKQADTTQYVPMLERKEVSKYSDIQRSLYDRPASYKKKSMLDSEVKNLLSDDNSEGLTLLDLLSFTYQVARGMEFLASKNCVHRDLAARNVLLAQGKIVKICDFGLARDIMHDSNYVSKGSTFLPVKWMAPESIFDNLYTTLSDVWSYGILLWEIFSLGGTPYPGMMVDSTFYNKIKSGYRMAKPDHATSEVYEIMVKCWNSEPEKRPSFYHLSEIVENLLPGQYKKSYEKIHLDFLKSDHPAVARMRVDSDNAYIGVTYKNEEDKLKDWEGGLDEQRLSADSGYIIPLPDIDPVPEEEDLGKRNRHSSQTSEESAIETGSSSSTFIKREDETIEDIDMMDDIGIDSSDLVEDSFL
In short: as §1

kinases [3] = target: T2, kinases (Homo sapiens, UniProt P36888, D835Y)
T2 construct: purchased Eurofins/DiscoveRx; host or cells: E. coli BL21-derived host (T7 phage display) for most kinases; HEK-293 for the rest
T2 sequence (P36888 27-993 D835Y): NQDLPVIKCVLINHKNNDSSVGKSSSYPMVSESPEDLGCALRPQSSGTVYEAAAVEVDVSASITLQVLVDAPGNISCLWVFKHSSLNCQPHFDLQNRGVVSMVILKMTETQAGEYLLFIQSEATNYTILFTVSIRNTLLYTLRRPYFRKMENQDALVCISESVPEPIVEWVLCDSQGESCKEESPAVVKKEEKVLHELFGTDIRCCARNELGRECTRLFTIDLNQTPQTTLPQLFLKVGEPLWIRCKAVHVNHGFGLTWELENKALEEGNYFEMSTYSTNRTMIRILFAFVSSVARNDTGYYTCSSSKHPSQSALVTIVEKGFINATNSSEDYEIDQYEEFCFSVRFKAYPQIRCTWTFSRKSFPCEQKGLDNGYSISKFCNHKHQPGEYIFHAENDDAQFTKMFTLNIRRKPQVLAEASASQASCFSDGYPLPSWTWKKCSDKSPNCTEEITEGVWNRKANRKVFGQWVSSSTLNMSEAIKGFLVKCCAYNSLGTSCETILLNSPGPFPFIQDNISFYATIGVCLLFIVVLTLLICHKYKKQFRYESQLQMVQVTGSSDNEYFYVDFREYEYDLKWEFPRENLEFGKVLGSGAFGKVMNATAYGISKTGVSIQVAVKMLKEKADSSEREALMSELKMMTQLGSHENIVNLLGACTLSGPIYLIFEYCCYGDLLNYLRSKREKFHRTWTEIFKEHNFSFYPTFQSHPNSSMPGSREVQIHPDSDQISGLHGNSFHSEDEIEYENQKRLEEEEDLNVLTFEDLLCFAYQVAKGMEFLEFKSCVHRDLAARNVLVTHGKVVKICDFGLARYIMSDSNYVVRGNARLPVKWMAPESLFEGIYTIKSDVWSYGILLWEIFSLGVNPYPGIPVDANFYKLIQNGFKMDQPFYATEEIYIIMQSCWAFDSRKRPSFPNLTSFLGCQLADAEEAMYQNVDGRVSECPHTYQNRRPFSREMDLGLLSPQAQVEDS
In short: as §1

kinases [4] = target: T3, kinases (Homo sapiens, UniProt P00533)
T3 construct: purchased Eurofins/DiscoveRx; host or cells: E. coli BL21-derived host (T7 phage display) for most kinases; HEK-293 for the rest
T3 sequence (P00533 25-1210): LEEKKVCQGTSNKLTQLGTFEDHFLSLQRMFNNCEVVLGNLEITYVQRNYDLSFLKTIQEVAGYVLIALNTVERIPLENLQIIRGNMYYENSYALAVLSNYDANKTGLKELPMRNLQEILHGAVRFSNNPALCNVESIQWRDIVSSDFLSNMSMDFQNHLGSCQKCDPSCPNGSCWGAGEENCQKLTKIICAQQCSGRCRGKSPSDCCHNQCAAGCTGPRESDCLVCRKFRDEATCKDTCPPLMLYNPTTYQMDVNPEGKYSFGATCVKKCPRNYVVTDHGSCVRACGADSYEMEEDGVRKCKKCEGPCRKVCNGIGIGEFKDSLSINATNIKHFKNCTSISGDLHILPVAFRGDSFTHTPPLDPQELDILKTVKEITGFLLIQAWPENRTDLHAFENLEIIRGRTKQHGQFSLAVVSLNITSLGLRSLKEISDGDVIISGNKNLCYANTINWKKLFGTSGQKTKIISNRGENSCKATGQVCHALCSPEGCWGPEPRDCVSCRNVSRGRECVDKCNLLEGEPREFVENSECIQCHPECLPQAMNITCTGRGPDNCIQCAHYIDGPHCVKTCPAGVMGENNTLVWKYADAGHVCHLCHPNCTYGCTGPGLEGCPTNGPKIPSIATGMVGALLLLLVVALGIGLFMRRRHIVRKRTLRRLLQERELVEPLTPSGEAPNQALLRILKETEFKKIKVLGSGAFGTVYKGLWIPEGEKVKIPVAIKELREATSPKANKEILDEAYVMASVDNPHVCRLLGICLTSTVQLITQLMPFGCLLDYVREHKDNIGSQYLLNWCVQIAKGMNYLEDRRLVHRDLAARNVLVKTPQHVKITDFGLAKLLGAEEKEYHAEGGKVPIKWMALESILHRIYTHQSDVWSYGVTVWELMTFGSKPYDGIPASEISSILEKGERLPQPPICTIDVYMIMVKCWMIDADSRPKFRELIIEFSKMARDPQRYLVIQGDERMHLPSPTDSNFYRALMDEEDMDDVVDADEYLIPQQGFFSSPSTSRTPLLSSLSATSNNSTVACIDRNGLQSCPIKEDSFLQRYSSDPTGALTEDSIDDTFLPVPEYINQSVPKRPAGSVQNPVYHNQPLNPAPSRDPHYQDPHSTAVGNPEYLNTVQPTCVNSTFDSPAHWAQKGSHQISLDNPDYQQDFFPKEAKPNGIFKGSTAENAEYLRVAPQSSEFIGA
In short: as §1

kinases [5] = target: T4, kinases (Homo sapiens, UniProt P36888, D835H)
T4 construct: purchased Eurofins/DiscoveRx; host or cells: E. coli BL21-derived host (T7 phage display) for most kinases; HEK-293 for the rest
T4 sequence (P36888 27-993 D835H): T2 sequence (P36888 27-993 D835Y) with Y809H
In short: as §1

[6] = target EGFR(L747-E749del, A750P)
[7] = target EGFR(L747-S752del, P753S)
[8] = target EGFR(L747-T751del, Sins)

Row | % Ctrl, EGFR(L747-E749del, A750P) (kinases [1]; [6]) | % Ctrl, EGFR(L747-S752del, P753S) (kinases [1]; [7]) | % Ctrl, EGFR(L747-T751del, Sins) (kinases [1]; [8]) | % Ctrl, FLT3(ITD) (kinases [1]; target FLT3(ITD)) | % Ctrl, FLT3(ITD, D835V) (kinases [1]; target FLT3(ITD, D835V)) | % Ctrl, FLT3(ITD, F691L) (kinases [1]; target FLT3(ITD, F691L)) | % Ctrl, PDGFRA (kinases [2]; target PDGFRA) | % Ctrl, FLT3(D835Y) (kinases [3]; target FLT3(D835Y)) | % Ctrl, EGFR (kinases [4]; target EGFR) | % Ctrl, FLT3(D835H) (kinases [5]; target FLT3(D835H)) | % Ctrl, EGFR(L747-E749del, A750P) (kinases [1]; EGFR(L747-E749del, A750P)) | % Ctrl, EGFR(L747-S752del, P753S) (kinases [1]; EGFR(L747-S752del, P753S)) | % Ctrl, EGFR(L747-T751del, Sins) (kinases [1]; EGFR(L747-T751del, Sins)) | % Ctrl, FLT3(ITD) (kinases [1]; FLT3(ITD)) | % Ctrl, FLT3(ITD, D835V) (kinases [1]; FLT3(ITD, D835V)) | % Ctrl, FLT3(ITD, F691L) (kinases [1]; FLT3(ITD, F691L)) | % Ctrl, PDGFRA (kinases [2]; PDGFRA) | % Ctrl, FLT3(D835Y) (kinases [3]; FLT3(D835Y)) | % Ctrl, EGFR (kinases [4]; EGFR) | % Ctrl, FLT3(D835H) (kinases [5]; FLT3(D835H)) | SMILES
1 | 71 % Ctrl | 77 % Ctrl | 81 % Ctrl | 8.1 % Ctrl | 1.2 % Ctrl | 0.9 % Ctrl | 74 % Ctrl | 2.5 % Ctrl | 94 % Ctrl | 14 % Ctrl | – | – | – | – | – | – | – | – | – | – | Cc1cc2c([nH]1)/C=C1\C(=O)Nc3ccc(cc31)-c1c(noc1C)CNCCN(C)C2=O [Ex. 139, [3a(4)Z]-6,9,16-trimethyl-10,11,12,13-tetrahydro-2H-1,17-(ethanediylidene)[1,2]oxazolo[4,3-m]dipyrrolo[3,2-f:3′,4′-i][1,4]diazacyclopentadecine-3,8(5H,9H)-dione]
2 | 38 % Ctrl | 60 % Ctrl | 77 % Ctrl | 4.7 % Ctrl | 0.3 % Ctrl | 3.2 % Ctrl | 100 % Ctrl | 22 % Ctrl | 51 % Ctrl | 5.7 % Ctrl | – | – | – | – | – | – | – | – | – | – | Cc1cc2c([nH]1)/C=C1\C(=O)Nc3ccc(cc31)-c1c(C)nn(C)c1COCCN(C)C2=O [Ex. 146, [3a(4)Z]-6,9,14,16-tetramethyl-10,11,13,14-tetrahydro-2H-1,17-(ethanediylidene)pyrazolo[4,3-m]dipyrrolo[3,2-f:3′,4′-i][1,4]oxazacyclopentadecine-3,8(5H,9H)-dione]
3 | – | – | – | – | – | – | – | – | – | – | 85 % Ctrl | 93 % Ctrl | 94 % Ctrl | 43 % Ctrl | 5.8 % Ctrl | 10 % Ctrl | 89 % Ctrl | 22 % Ctrl | 91 % Ctrl | 23 % Ctrl | Cc1cc2c([nH]1)/C=C1\C(=O)Nc3ccc(cc31)-c1c(noc1C)COCCN(C)C2=O [Ex. 128, [3a(4)Z]-6,9,16-trimethyl-1,11-dihydro-2H,13H-1,17-(ethanediylidene)[1,4]oxazolo[4,3-m]dipyrrolo[3,2-f:3′,4′-i][1,4]oxazacyclopentadecine-3,8(5H,9H)-dione]

More lines, now with the values behind:

Row | SMILES | % Ctrl, EGFR(L747-E749del, A750P) (kinases [1]; [6]) | % Ctrl, EGFR(L747-S752del, P753S) (kinases [1]; [7]) | % Ctrl, EGFR(L747-T751del, Sins) (kinases [1]; [8]) | % Ctrl, FLT3(ITD) (kinases [1]; target FLT3(ITD)) | % Ctrl, FLT3(ITD, D835V) (kinases [1]; target FLT3(ITD, D835V)) | % Ctrl, FLT3(ITD, F691L) (kinases [1]; target FLT3(ITD, F691L)) | % Ctrl, PDGFRA (kinases [2]; target PDGFRA) | % Ctrl, FLT3(D835Y) (kinases [3]; target FLT3(D835Y)) | % Ctrl, EGFR (kinases [4]; target EGFR) | % Ctrl, FLT3(D835H) (kinases [5]; target FLT3(D835H)) | % Ctrl, EGFR(L747-E749del, A750P) (kinases [1]; EGFR(L747-E749del, A750P)) | % Ctrl, EGFR(L747-S752del, P753S) (kinases [1]; EGFR(L747-S752del, P753S)) | % Ctrl, EGFR(L747-T751del, Sins) (kinases [1]; EGFR(L747-T751del, Sins)) | % Ctrl, FLT3(ITD) (kinases [1]; FLT3(ITD)) | % Ctrl, FLT3(ITD, D835V) (kinases [1]; FLT3(ITD, D835V)) | % Ctrl, FLT3(ITD, F691L) (kinases [1]; FLT3(ITD, F691L)) | % Ctrl, PDGFRA (kinases [2]; PDGFRA) | % Ctrl, FLT3(D835Y) (kinases [3]; FLT3(D835Y)) | % Ctrl, EGFR (kinases [4]; EGFR) | % Ctrl, FLT3(D835H) (kinases [5]; FLT3(D835H))
4 | Cc1cc2c([nH]1)/C=C1\C(=O)Nc3ccc(cc31)-c1ccnn1CCOCCNC2=O [Ex.39, [19a(20)Z]-2-methyl-6,7,9,10-tetrahydro-1H-15,17-(ethanediylidene)pyrazolo[1,5-d]dipyrrolo[3,4-h:2′,3′-k][1,4,14]oxadiazacyclohexadecine-4,19(5H,18H)-dione] | – | – | – | – | – | – | – | – | – | – | 68 % Ctrl | 66 % Ctrl | 60 % Ctrl | 89 % Ctrl | 17 % Ctrl | 27 % Ctrl | 89 % Ctrl | 96 % Ctrl | 77 % Ctrl | 85 % Ctrl
5 | Cc1cc2c([nH]1)/C=C1\C(=O)Nc3ccc(cc31)OCCOCCN(C)C2=O [Ex.91, [16a(17)Z]-2,5-dimethyl-6,7,9,10-tetrahydro-1H-12,14-(ethanediylidene)dipyrrolo[3,2-i:3′,4′-l][1,4,7]dioxazacyclopentadecine-4,16(5H,15H)-dione] | – | – | – | – | – | – | – | – | – | – | 100 % Ctrl | 94 % Ctrl | 68 % Ctrl | 2.1 % Ctrl | 0 % Ctrl | 0 % Ctrl | 52 % Ctrl | 0.25 % Ctrl | 99 % Ctrl | 1.2 % Ctrl
6 | Cc1cc2c([nH]1)/C=C1\C(=O)Nc3ccc(cc31)-c1cnn(C)c1CN(C)CCN(C)C2=O [Ex. 126, [3a(4)Z]-6,9,12,14-tetramethyl-9,10,11,12,13,14-hexahydro-1,17-(ethanediylidene)pyrazolo[4,3-m]dipyrrolo[3,2-f:3′,4′-i][1,4]diazacyclopentadecine-3,8(2H,5H)-dione] | – | – | – | – | – | – | – | – | – | – | 1.8 % Ctrl | 14 % Ctrl | 27 % Ctrl | 0.4 % Ctrl | 0 % Ctrl | 2.5 % Ctrl | 1.2 % Ctrl | 1.4 % Ctrl | 23 % Ctrl | 0.05 % Ctrl
7 | Cc1nn(C)c2c1-c1ccc3c(c1)/C(=C/c1[nH]ccc1C(=O)N(C)CCCO2)C(=O)N3 [Ex. 150, [3a(4)Z]-9,14,16-trimethyl-10,11,13,14-tetrahydro-2H-1,17-(ethanediylidene)pyrazolo[4,3-m]dipyrrolo[3,2-f:3′,4′-i][1,4]oxazacyclopentadecine-3,8(5H,9H)-dione] | 94 % Ctrl | 100 % Ctrl | 94 % Ctrl | 72 % Ctrl | 35 % Ctrl | 59 % Ctrl | 92 % Ctrl | 67 % Ctrl | 61 % Ctrl | 62 % Ctrl | – | – | – | – | – | – | – | – | – | –
8 | CNC(=O)[C@H]1CN(C)C(=O)c2cc(C)[nH]c2/C=C2\C(=O)Nc3cc(Cl)c(cc32)OCCO1 [Ex. 135, [7R,16a(17)Z]-19-chloro-N,2,5-trimethyl-4,16-dioxo-4,5,6,7,9,10,15,16-octahydro-1H-12,14-(ethanediylidene)dipyrrolo[3,2-i:3′,4′-l][1,4,7]dioxazacyclopentadecine-7-carboxamide] | – | – | – | – | – | – | – | – | – | – | 82 % Ctrl | 80 % Ctrl | 98 % Ctrl | 52 % Ctrl | 11 % Ctrl | 25 % Ctrl | 79 % Ctrl | 13 % Ctrl | 100 % Ctrl | 37 % Ctrl
